Reference: US6723754B2, “Use of COMT inhibitors as analgesics” (Orion Corporation, priority 2000, dated 2004)
Marks after values point to notes of the source that are not given here.

What was measured:
[1] = tested on: acetic acid induced writhing in mice; assay: Acetic acid-induced writhing in mice; assay type: in vivo; details: mouse
Experimental: (§1) There are several methods for testing analgesic drugs experimentally. […] The inflammation is induced in the rat hind paw by yeast suspension and the pain threshold of the paw is measured. […] In these tests, both the NSAIDs and opioid analgesics are known to be effective. The hot plate test in mice is a test in which only opioid analgesics are effective.
Acetic acid induced writhing test is a widely used screening method for analgesic agents. […] Writing movements were elicited in mice by an i.p. injection of 1% acetic acid in the volume of 0.1 ml/10 g. The mice were placed in individual glass containers for observation. The number of writhes was counted during a period of 20 minutes and recorded every 5 minutes. The test compounds were given 5-60 minutes before the acetic acid.

inflamed paw in rats = assay: Modified Randall-Selitto test (yeast-inflamed hind paw pain threshold); assay type: in vivo; details: rat, one hour before measurement, % of control value
Experimental: as §1
The effect on inflammatory pain was measured using a modified Randall-Selitto test. 0.1 ml of 20% Brewer's yeast suspension was injected subplantary to the right hind paw of rats under ether anaesthesia to elicit inflammation in the paw. After 3 hours the degree of hyperalgesia was determined with an analgesy-meter by applying a force of increasing magnitude to the inflamed paw with a cone-shaped teflon pusher. The force at which the animals begins to struggle was assumed to represent the pain threshold. The drugs were administered orally 5 ml/kg one hour before the measurement. The increase in pain threshold was calculated as a percentage of the control value.

[2] = tested on: formation of prostaglandins; details: Aho and Linden, Scand.J.Gastroenterol. 1992; cited from earlier work

Row | SMILES | Inhibition of writhing (%) ([1]; 50 mg/kg p.o.) | Inhibition of writhing (%) ([1]; 100 mg/kg p.o.) | Increase in pain threshold (%) (inflamed paw in rats; 3 mg/kg p.o.) | Increase in pain threshold (%) (inflamed paw in rats; 10 mg/kg p.o.) | Increase in pain threshold (%) (inflamed paw in rats; 30 mg/kg p.o.) | Increase in pain threshold (%) (inflamed paw in rats; 1 mg/kg p.o.) | Inhibition of writhing (%) ([1]; 1 mg/kg i.p.) | Inhibition of writhing (%) ([1]; 2 mg/kg p.o.) | Inhibition of writhing (%) ([1]; 6 mg/kg p.o.) | Inhibition of writhing (%) ([1]; 3 mg/kg i.v.) | Inhibition of writhing (%) ([1]; 10 mg/kg i.v.) | Inhibition of writhing (%) ([1]; 30 mg/kg i.p.) | Inhibition of writhing (%) ([1]; 100 mg/kg i.p.) | Increase in pain threshold (%) (inflamed paw in rats; 0.5 mg/kg p.o.) | Effect on formation of prostaglandins [2]
1 | CC(=O)c1cc(O)c(O)c([N+](=O)[O-])c1 [3′,4′-dihydroxy-5′-nitroacetophenone] | 28** % | 43** % | 45% | 68** % | 62* % | – | – | – | – | – | – | – | – | – | –
2 | O=[N+]([O-])c1cc(O)c(O)c([N+](=O)[O-])c1 [3,5-dinitrocatechol] | 36** % | 22** % | 49* % | – | 65* % | 49* % | – | – | – | – | – | – | – | – | –
3 | COc1ccc2c(c1)c(CC(=O)O)c(C)n2C(=O)c1ccc(Cl)cc1 [Indomethacin, indomethacin] | – | – | – | – | – | 54* % | 38* % | 18* % | 42** % | – | – | – | – | – | –
4 | CCN(CC)C(=O)/C(C#N)=C/c1cc(O)c(O)c([N+](=O)[O-])c1 [Entacapone, (E)-2-cyano-3-(3,4-dihydroxy-5-nitrophenyl)-N,N-diethyl-2-propenamide] | – | 24% | – | 62% | 64% | – | – | – | – | 14% | 38* % | – | – | – | –
5 | CC(=O)C(=Cc1cc(O)c(O)c([N+](=O)[O-])c1)C(C)=O [Nitecapone, 3-(3,4-dihydroxy-5-nitrophenyl)methylene-2,4-pentanedione] | 15* % | 21** % | 46* % | 45* % | – | 58* % | – | – | – | – | – | 37* % | 76* % | 13% | stimulate the formation of prostaglandins
